Here are results for one compound from patent publication US20260041679A1, “METHOD OF TREATING HYPERTENSION WITH THE ALDOSTERONE SYNTHASE INHIBITOR BAXDROSTAT” (CINCOR PHARMA, INC., priority 2022, published 2026).

Like-named read-outs stand apart in the source and are kept apart here.

A word on the half-life: it is the time in which the quantity being followed falls by half. For orientation: Cmax means the highest concentration seen after dosing. One may read the Tmax as the time at which the peak concentration occurs.

Data set [1] can be described thus: Single ascending dose study, pharmacokinetics (Example 1). The format is in vivo. How it is done:
Eighty-eight healthy male volunteers completed the first-in-human study of baxdrostat. In part 1 of the trial, subjects received a single oral dose of baxdrostat ranging from 1 to 360 mg in order to evaluate safety, tolerability, PK, and pharmacodynamics (PD). Part 2 evaluated the PK of a single 3 mg intravenous dose of baxdrostat.

Data set [2] can be described thus: Plasma PK of baxdrostat and baxdrostat-M in the metformin crossover study (Example 6A). The format is in vivo, human. The following applies: single 10-mg dose of baxdrostat. On the procedure: This study was designed as a phase 1, randomized, open-label, 2-period, crossover trial. Each subject participated in a screening period of up to 26 days followed by 2 inpatient treatment periods and a follow-up phone call. […] Plasma samples were extracted by protein precipitation with methanol, followed by analysis by LC-MS/MS with ESI(+) and MRM. Reversed-phase chromatographic separation with a mobile phase gradient of 20% to 90% was utilized, and total run time was approximately 5 minutes. […] PK parameters were calculated using noncompartmental methods with SAS software, version 9.4 (SAS Institute). […] Tmax; […] AUC0-t; AUC0-inf, AUC0-inf extrapolated; λz; and t1/2. Plasma AUC0-72 was assessed only for baxdrostat and baxdrostat-M. […] Urine PK parameters included Ae, renal clearance (calculated as Ae/AUC), and the fraction of dose excreted renally.

Data set [3] in a line: Safety in hepatic function study (Example 5). It counts as in vivo, human. On the procedure: Subjects with moderate hepatic impairment (Child-Pugh Category B, n=10) and healthy controls (n=10) were each given a single 10 mg oral dose of baxdrostat. Subjects were matched by age, sex, body mass index, race, and smoking status. Serial blood and urine samples were collected to determine plasma and urine concentrations of baxdrostat for 7 days postdose. Safety was assessed based on adverse events, clinical laboratory evaluations, vital signs, electrocardiogram and physical examinations.

Compound `CCC(=O)N[C@@H]1CCCc2c(-c3ccc4c(c3)CCC(=O)N4C)cncc21` [baxdrostat, (R)—N-(4-(1-methyl-2-oxo-1,2,3,4-tetrahydroquinolin-6-yl)-5,6,7,8-tetrahydroisoquinolin-8-yl) propionamide] gave a half-life in data set [1] (human, plasma, oral, single dose, healthy male volunteers) of 29 h. The “plasma levels of baxdrostat vs dose” value in data set [1] (single oral dose 1 to 360 mg) is given as “increased in a dose-proportional manner”. Also, the AUC% extrapolated in data set [2] (human) was 8.36%. Besides, the AUC(0-t) in data set [2] (human, read-out: AUC0-24, Mean) is 1660 ng·h/mL; in data set [2] (human, read-out: AUC0-72, GM) it was 2790 ng·h/mL; in data set [2] (human, read-out: AUC0-72, Mean), 2870 ng·h/mL. For the same compound, the AUC(0-inf) in data set [2] (human, read-out: AUC0-inf, GM) is 2920 ng·h/mL; in data set [2] (human, read-out: AUC0-inf, Mean) it was 3030 ng·h/mL. Moreover, the Cmax worked out at 117 ng/mL in data set [2] (human, read-out: Cmax, GM) and 119 ng/mL in data set [2] (human, read-out: Cmax, Mean). The Tmax was determined as 1.54 h in data set [2] (human, read-out: Tmax, GM) and 1.68 h in data set [2] (human, read-out: Tmax, Mean). Moreover, the “AUC0-24, GM” value in data set [2] came to 1637.461 ng·h/mL. Moreover, the “λz, GM” value in data set [2] amounted to 0.032 h⁻¹. The “λz, Mean” value in data set [2] stood at 0.033 h⁻¹. The “clinical laboratory evaluations, vital signs, electrocardiograms, physical examinations” value in data set [3] (both groups) was “No clinically significant changes”. In data set [3] (normal hepatic function group), the “TEAE deemed related to baxdrostat” value is given as “One TEAE of headache with moderate severity”. Also, the “deaths, serious TEAEs, study discontinuations” value in data set [3] (single 10 mg, both hepatic function groups) is “no deaths, serious treatment-emergent adverse events (TEAE), or study discontinuations”.
